Experiment in all cases: KinomeScan profiling
Common to all, as to type: binding

For one assay, the target named is PKNB(M. tuberculosis) (Mycobacterium tuberculosis, UniProt P9WI81). Particulars: read-out: % control.
A further assay deals with T1, IRAK1 (Homo sapiens, UniProt P51617).
T1 construct: purchased KinomeScan®
The note with it: IRAK1, 1 μM; read-out: % control. On the procedure:
(§1) The kinase selectivity of inventive compounds 77, 96 and 101 was evaluated by KinomeScan®. KinomeScan® analysis was performed against a near comprehensive panel of 468 kinases. The control percentage (% control) for inventive compounds at 1 μM in DMSO was determined by Equation 1: % control=(inventive compound−positive control)/(negative control−positive control)×100%, Equation 1
(§2) wherein the positive control is a compound with a % control value of 0% relative light units (RLU), and the negative control (i.e., DMSO) has % control value of 100% RLU. The enzyme selectivity in the present invention is defined as follows: inventive compounds are considered active for an enzyme when the observed % control is less than 35% (<35%).

The target in another assay is T2, AXL (Homo sapiens, UniProt P30530).
T2 construct: purchased KinomeScan®
T2 sequence (P30530 26-894): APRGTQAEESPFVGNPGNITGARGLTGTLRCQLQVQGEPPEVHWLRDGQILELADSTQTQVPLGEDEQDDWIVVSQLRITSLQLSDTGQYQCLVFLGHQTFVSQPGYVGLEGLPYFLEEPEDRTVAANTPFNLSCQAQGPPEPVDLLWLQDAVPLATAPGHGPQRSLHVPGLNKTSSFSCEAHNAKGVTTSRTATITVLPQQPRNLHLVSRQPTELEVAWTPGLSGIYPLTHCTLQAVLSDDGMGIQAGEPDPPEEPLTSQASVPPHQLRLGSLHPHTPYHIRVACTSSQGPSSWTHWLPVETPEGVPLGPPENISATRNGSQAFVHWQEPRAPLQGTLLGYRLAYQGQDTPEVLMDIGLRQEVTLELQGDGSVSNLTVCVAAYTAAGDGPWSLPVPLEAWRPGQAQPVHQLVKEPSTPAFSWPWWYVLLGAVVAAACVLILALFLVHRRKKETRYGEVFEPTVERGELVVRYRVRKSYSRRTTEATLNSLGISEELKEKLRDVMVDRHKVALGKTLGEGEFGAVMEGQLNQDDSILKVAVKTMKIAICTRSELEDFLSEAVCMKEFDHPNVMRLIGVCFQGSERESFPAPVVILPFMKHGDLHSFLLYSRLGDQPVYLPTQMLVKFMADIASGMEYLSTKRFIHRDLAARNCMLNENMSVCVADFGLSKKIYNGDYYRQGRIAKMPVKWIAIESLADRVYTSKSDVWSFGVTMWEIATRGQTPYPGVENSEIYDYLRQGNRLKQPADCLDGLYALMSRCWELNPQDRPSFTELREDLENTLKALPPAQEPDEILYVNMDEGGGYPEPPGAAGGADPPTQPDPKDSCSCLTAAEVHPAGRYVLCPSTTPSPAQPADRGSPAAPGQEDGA
The note with it: read-out: % control. On the procedure: as §1, §2

A further assay has as its target T3, ITK (Homo sapiens, UniProt Q08881).
T3 construct: purchased KinomeScan®
T3 sequence (Q08881 1-620): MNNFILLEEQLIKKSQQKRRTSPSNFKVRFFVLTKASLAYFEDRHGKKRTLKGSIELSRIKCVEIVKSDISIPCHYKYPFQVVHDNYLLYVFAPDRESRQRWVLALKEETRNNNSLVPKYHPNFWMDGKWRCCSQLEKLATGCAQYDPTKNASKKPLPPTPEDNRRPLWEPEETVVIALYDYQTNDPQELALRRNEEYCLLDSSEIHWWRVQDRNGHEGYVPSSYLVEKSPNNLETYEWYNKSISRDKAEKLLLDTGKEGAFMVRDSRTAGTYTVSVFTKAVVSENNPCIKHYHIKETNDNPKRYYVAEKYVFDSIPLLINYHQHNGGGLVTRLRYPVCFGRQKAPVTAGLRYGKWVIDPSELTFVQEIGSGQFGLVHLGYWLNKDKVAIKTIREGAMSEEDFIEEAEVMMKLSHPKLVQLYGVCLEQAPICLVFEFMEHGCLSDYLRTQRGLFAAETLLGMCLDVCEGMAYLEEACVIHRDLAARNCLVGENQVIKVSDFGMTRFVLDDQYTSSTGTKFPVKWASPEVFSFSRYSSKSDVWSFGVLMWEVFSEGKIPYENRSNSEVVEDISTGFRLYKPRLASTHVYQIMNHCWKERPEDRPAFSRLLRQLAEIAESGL
The note with it: read-out: % control. How it is done: as §1, §2

The next assay concerns the target TIE2 (Homo sapiens, UniProt Q02763). Particulars: TIE2, 1 μM; read-out: % control. How it is done:
as §1, §2

A further assay deals with YSK1 (Homo sapiens, UniProt O00506). Particulars: YSK1, 1 μM; read-out: % control. On the procedure:
as §1, §2

The target of the next assay is T4, PIK3CA(E545A) (Homo sapiens, UniProt P42336, E545A).
T4 construct: purchased KinomeScan® (panel service)
The note with it: read-out: % control. On the procedure:
as §1, §2

Chain of YSK1 (O00506 whole entry): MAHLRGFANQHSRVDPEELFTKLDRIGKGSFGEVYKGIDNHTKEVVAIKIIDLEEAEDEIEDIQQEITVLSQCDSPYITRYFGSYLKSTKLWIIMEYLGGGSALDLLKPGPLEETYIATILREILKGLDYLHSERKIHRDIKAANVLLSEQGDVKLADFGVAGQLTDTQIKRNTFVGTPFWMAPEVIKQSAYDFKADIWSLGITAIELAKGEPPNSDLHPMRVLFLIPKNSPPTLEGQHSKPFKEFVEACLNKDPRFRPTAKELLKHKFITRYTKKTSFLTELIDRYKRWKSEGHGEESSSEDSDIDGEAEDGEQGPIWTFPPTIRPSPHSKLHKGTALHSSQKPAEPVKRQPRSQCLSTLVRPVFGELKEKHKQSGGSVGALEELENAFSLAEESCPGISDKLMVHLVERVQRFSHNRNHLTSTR
T4 sequence (P42336 whole entry E545A): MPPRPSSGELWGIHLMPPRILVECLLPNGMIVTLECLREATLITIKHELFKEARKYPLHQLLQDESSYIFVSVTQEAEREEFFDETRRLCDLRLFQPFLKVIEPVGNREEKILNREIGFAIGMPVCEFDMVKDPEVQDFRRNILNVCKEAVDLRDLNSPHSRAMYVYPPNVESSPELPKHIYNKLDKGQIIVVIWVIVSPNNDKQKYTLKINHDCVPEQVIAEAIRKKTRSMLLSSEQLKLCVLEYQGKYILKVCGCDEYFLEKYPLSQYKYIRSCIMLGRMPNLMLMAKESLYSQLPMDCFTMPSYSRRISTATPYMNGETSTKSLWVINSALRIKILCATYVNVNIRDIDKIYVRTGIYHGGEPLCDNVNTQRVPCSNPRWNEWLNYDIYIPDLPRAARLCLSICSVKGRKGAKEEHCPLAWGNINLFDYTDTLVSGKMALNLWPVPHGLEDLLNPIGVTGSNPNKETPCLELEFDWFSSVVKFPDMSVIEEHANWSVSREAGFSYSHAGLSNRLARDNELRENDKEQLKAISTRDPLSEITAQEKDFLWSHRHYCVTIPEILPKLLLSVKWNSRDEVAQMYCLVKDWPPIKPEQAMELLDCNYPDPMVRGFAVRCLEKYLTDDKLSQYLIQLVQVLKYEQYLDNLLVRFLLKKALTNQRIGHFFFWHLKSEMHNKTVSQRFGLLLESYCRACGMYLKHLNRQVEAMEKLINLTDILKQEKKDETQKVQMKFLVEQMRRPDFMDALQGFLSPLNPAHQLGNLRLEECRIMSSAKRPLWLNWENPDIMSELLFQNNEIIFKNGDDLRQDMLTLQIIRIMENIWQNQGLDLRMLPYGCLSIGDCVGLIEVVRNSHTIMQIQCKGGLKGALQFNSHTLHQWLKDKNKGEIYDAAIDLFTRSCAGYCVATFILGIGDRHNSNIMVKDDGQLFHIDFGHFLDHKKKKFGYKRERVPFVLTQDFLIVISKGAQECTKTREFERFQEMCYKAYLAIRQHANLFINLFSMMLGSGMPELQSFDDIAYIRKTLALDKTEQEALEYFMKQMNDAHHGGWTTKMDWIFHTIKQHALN
Chain of TIE2 (Q02763 23-1124): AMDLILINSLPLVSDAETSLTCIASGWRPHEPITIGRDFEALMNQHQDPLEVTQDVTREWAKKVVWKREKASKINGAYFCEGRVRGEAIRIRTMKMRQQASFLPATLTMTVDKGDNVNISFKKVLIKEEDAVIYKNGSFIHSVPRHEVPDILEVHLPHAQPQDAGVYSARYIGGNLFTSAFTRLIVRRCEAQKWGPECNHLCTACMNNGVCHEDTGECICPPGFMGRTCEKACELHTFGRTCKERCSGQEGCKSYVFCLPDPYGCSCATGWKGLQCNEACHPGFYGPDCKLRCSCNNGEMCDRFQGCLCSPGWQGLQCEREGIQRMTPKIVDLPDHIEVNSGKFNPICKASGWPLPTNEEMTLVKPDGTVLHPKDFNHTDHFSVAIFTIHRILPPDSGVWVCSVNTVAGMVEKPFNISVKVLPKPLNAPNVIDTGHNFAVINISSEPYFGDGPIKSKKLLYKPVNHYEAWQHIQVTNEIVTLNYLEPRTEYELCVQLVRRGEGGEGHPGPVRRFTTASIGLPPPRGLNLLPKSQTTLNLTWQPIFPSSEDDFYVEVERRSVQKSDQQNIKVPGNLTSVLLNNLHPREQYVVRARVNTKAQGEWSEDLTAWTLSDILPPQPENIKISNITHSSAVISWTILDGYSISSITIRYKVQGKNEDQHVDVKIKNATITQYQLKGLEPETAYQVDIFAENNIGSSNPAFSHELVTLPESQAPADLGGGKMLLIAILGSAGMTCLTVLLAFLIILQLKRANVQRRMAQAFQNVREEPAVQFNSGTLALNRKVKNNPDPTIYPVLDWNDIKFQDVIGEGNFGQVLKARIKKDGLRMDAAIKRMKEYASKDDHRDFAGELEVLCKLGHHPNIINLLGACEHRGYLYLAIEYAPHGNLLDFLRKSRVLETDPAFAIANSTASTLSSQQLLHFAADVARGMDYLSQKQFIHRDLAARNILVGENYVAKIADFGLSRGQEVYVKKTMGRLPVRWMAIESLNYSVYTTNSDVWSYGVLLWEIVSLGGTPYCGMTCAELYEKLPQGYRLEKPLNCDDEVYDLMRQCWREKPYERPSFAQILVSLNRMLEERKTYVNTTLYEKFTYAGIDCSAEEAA
T1 sequence (P51617 whole entry): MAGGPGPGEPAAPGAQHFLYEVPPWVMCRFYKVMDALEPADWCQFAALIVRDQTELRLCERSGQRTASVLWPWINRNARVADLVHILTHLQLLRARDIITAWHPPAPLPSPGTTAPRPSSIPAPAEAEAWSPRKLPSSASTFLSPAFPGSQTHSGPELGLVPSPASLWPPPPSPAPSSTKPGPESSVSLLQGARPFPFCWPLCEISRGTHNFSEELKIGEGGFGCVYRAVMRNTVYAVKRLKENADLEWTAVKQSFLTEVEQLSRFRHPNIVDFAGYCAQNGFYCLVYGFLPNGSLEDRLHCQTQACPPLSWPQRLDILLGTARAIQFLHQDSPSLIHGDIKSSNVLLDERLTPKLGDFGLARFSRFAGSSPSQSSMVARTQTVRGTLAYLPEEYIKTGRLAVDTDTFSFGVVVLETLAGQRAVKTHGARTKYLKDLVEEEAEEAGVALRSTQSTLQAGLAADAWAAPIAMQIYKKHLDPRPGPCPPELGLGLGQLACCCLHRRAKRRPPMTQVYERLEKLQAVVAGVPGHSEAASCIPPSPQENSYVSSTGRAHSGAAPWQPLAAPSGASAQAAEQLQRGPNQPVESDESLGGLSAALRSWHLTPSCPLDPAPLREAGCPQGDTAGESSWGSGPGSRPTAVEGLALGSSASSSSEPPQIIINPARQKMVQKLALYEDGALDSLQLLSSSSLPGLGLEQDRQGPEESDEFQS
Chain of PKNB(M. tuberculosis) (P9WI81 whole entry): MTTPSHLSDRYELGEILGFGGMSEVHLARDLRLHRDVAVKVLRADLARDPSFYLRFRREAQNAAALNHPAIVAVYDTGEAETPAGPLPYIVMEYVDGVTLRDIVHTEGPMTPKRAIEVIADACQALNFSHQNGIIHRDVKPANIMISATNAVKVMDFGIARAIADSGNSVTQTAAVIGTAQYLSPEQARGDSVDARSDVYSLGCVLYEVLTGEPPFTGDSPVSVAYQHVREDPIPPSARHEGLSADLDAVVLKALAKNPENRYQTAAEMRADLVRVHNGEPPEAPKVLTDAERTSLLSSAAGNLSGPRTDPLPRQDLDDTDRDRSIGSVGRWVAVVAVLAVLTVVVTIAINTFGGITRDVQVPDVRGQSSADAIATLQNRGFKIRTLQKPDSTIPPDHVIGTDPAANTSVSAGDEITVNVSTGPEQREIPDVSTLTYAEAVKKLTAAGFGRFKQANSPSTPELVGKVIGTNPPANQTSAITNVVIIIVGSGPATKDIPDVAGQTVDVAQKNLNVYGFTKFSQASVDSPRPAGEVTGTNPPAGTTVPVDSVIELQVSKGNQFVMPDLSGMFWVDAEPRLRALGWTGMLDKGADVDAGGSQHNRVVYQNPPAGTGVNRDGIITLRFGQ

Regarding `CNc1c(-c2cnn([C@H]3CCN(C(C)=O)C[C@@H]3F)c2)cnc2[nH]cc(Cl)c12` [Compound 77, 1-((3S,4S)-4-(4-(3-chloro-4-(methylamino)-1H-pyrrolo[2,3-b]pyridin-5-yl)-1H-pyrazol-1-yl)-3-fluoropiperidin-1-yl)ethan-1-one], the remaining binding at 1 µM on PKNB(M. tuberculosis) worked out at 30%; at IRAK1, 33%; at AXL it was 8.5%; at ITK, 71%; at TIE2, 80%; at YSK1, 84%. Moreover, the remaining binding at 1 µM at PIK3CA(E545A) worked out at 80%.
As to `CNc1c(-c2ccc(C(=O)N3CCC(N4CCOCC4)CC3)cc2)cnc2[nH]cc(Cl)c12` [Compound 96, (4-(3-chloro-4-(methylamino)-1H-pyrrolo[2,3-b]pyridin-5-yl)phenyl)(4-morpholinopiperidin-1-yl)methanone], the remaining binding at 1 µM on PKNB(M. tuberculosis) worked out at 61%; on IRAK1 it was 41%; at AXL, 33%; at ITK it was 93%; at TIE2 it was 81%; on YSK1, 97%. The remaining binding at 1 µM on PIK3CA(E545A) came out at 62%.
On to `O=C(c1ccc(-c2cnc3[nH]cc(Cl)c3c2NC2CCCC2)cc1)N1CCC(N2CCOCC2)CC1` [Compound 101, (4-(3-chloro-4-(cyclopentylamino)-1H-pyrrolo[2,3-b]pyridin-5-yl)phenyl)(4-morpholinopiperidin-1-yl)methanone], for which the remaining binding at 1 µM on PKNB(M. tuberculosis) was 89%; at IRAK1, 100%; on AXL it was 40%; on ITK, 90%; on TIE2, 97%; at YSK1 it was 100%. Moreover, the remaining binding at 1 µM on PIK3CA(E545A) is 98%.

Values taken from US12275731B2, “Azaindole inhibitors of wild-type and mutant forms of LRRK2” (DANA-FARBER CANCER INSTITUTE, INC., priority 2018, dated 2025).
